We go through ten compounds from ChEMBL document CHEMBL1201862, “PubChem BioAssay data set” (2004).

Some test systems named below: 786-0; A549; CCRF-CEM; DU-145; HCT-116; HL-60; Hs-578T; LOX IMVI; MDA-N; NCI-H226; NCI-H23; NCI-H522; OVCAR-8; SF-268; SF-539; SK-MEL-28; SR; T47D; UACC-257; UO-31.
Assay in all cases: NCI anticancer screen, dose series, 48 h

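Grown in 96-well plates, cells were treated for 48 hours with each compound at five concentrations. Insufficient inhibition: endpoint recorded as highest concentration tested. At the GI50, growth is halved.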 The source made the active and inactive calls. Rule as the data show it: active = GI50 up to about 1.1 µM and inactive = higher. Some results are limits rather than exact numbers.

In the case of `C[C@@H]1CC[C@H]2C(C)(C)[C@H]3C[C@@]12CC[C@@]3(C)O` [CEDROL], the GI50 in the assay with 786-0 was 34.3 µM (inactive); in the assay with A549 it was 42.7 µM (inactive); in the assay on CCRF-CEM, > 100 µM (inactive); in the assay with DU-145, > 100 µM (inactive); with HCT-116 it was > 100 µM (inactive); with HL-60, 18.7 µM (inactive). Moreover, the GI50 in the assay on Hs-578T was > 100 µM (inactive); with LOX IMVI, > 100 µM (inactive); in the assay with MDA-N, > 100 µM (inactive); in the assay with NCI-H226 it was 77.1 µM (inactive); with NCI-H23, > 100 µM (inactive); in the assay on NCI-H522, 45.9 µM (inactive). Besides, the GI50 was > 100 µM (inactive) in the assay with OVCAR-8; > 100 µM (inactive) in the assay with SF-268; > 100 µM (inactive) with SF-539; 60 µM (inactive) in the assay on SK-MEL-28; 18.7 µM (inactive) in the assay with SR; > 100 µM (inactive) with T47D. In addition, the GI50 in the assay on UACC-257 and in the assay with UO-31 was > 100 µM (inactive) throughout.

Consider `Cc1ccc(C(=O)Nc2ccc(S(=O)(=O)O)c3cc(S(=O)(=O)O)cc(S(=O)(=O)O)c23)cc1NC(=O)c1cccc(NC(=O)Nc2cccc(C(=O)Nc3cc(C(=O)Nc4ccc(S(=O)(=O)O)c5cc(S(=O)(=O)O)cc(S(=O)(=O)O)c45)ccc3C)c2)c1` [SURAMIN], for which the GI50 was 74.6 µM (inactive) in the assay on 786-0; 56.4 µM (inactive) in the assay on A549; > 100 µM (inactive) with CCRF-CEM; > 100 µM (inactive) with DU-145; 76 µM (inactive) in the assay on HCT-116; 49.4 µM (inactive) in the assay with HL-60. In addition, the GI50 in the assay with Hs-578T is > 100 µM (inactive); in the assay on LOX IMVI, 51.1 µM (inactive); with MDA-N it was > 100 µM (inactive); in the assay with NCI-H226 it was > 63.8 µM (inactive); in the assay on NCI-H23, 68.9 µM (inactive); with NCI-H522, 88.5 µM (inactive). Moreover, the GI50 with OVCAR-8 is 74.8 µM (inactive); in the assay on SF-268 it was 66.2 µM (inactive); with SF-539 it was > 100 µM (inactive); with SK-MEL-28, > 91.6 µM (inactive); in the assay on SR, 69.3 µM (inactive); in the assay on T47D, > 100 µM (inactive). The GI50 in the assay on UACC-257 was > 100 µM (inactive); with UO-31 it was 39.4 µM (inactive).

Take `O=C1C(Cl)=C(Nc2ccc(OC(F)(F)F)cc2)C(=O)c2c(O)ccc(O)c21`: the GI50 in the assay on 786-0 was 0.445 µM (active); in the assay with A549, 1.22 µM (inactive); in the assay on CCRF-CEM, 0.377 µM (active); in the assay on DU-145 it was 0.705 µM (active); with HCT-116 it was 0.203 µM (active); in the assay with HL-60 it was 0.182 µM (active). Further, the GI50 in the assay on Hs-578T was 0.719 µM (active); with LOX IMVI, 0.262 µM (active); in the assay on MDA-N it was 2.22 µM (inactive); in the assay on NCI-H226, 1.5 µM (inactive); in the assay with NCI-H23 it was 0.303 µM (active); with NCI-H522, 0.571 µM (active). In addition, the GI50 is 0.71 µM (active) with OVCAR-8; 0.594 µM (active) with SF-268; 1.73 µM (inactive) with SF-539; 0.762 µM (active) with SK-MEL-28; 0.275 µM (active) with SR; 0.417 µM (active) with T47D. Further, the results for the GI50 in the assay with UACC-257 and with UO-31 were 0.959 µM (active) and 0.561 µM (active), respectively.

`C[C@H]1CC[C@H](NC(=O)N(CCCl)N=O)CC1`: the GI50 in the assay with 786-0 is 31.6 µM (inactive); in the assay with A549, 51.3 µM (inactive); with CCRF-CEM it was 13.2 µM (inactive); in the assay on DU-145 it was 82.4 µM (inactive); with HCT-116, 39.6 µM (inactive); with HL-60, 14.4 µM (inactive). The GI50 with Hs-578T is 57.4 µM (inactive); in the assay on LOX IMVI, 13 µM (inactive); with MDA-N, 44.8 µM (inactive); in the assay with NCI-H226, 59 µM (inactive); in the assay on NCI-H23, 54.5 µM (inactive); with NCI-H522, 40 µM (inactive). Besides, the GI50 in the assay on OVCAR-8 is 53.2 µM (inactive); in the assay on SF-268, 22.1 µM (inactive); in the assay on SF-539, 27.1 µM (inactive); in the assay with SK-MEL-28, 46.2 µM (inactive); with SR, 10.6 µM (inactive); with T47D it was 29.7 µM (inactive). Moreover, the GI50 in the assay with UACC-257 was 46.3 µM (inactive); in the assay on UO-31, 49.9 µM (inactive).

`N/C(S)=N/N=C/c1ccc(N)cn1`: the GI50 is 2.43 µM (inactive) in the assay on 786-0; 3.54 µM (inactive) in the assay with A549; 1.93 µM (inactive) in the assay with CCRF-CEM; 2.75 µM (inactive) with DU-145; 3.98 µM (inactive) in the assay on HCT-116; 1.91 µM (inactive) with HL-60. Also, the GI50 in the assay with Hs-578T was > 8.36 µM (inactive); in the assay with LOX IMVI, 3.62 µM (inactive); in the assay with MDA-N, > 6.59 µM (inactive); with NCI-H226, 4.24 µM (inactive); in the assay with NCI-H23, 2.13 µM (inactive); in the assay with NCI-H522, 3.63 µM (inactive). The GI50 with OVCAR-8 is 3.18 µM (inactive); in the assay with SF-268, 4.29 µM (inactive); in the assay with SF-539, 0.404 µM (active); in the assay on SK-MEL-28, > 10 µM (inactive); in the assay on SR, 3.67 µM (inactive); with T47D, 6.68 µM (inactive). For the same compound, the GI50 in the assay on UACC-257 is > 10 µM (inactive); with UO-31, 2.28 µM (inactive).

Consider `CN(C)c1cccc2c(S(=O)(=O)NCCCNCCN)cccc12`, for which the GI50 was 53.1 µM (inactive) in the assay with 786-0; 66.5 µM (inactive) in the assay with A549; 22.3 µM (inactive) with CCRF-CEM; > 100 µM (inactive) in the assay with DU-145; 36.2 µM (inactive) in the assay on HCT-116; 26.1 µM (inactive) in the assay on HL-60. In addition, the GI50 was 22.3 µM (inactive) with Hs-578T; 66.8 µM (inactive) in the assay with LOX IMVI; 26.2 µM (inactive) with MDA-N; 64.6 µM (inactive) in the assay with NCI-H226; 82.4 µM (inactive) in the assay with NCI-H23; 48.1 µM (inactive) in the assay on NCI-H522. Also, the GI50 in the assay with SF-268 is 65.6 µM (inactive); in the assay with SF-539, 21.3 µM (inactive); in the assay with SK-MEL-28, 46.1 µM (inactive); in the assay on SR, 19.1 µM (inactive); with T47D, 49.4 µM (inactive); in the assay on UACC-257, > 100 µM (inactive). For the same compound, the GI50 in the assay with UO-31 is 56.9 µM (inactive).

Regarding `O=C1Cc2c([nH]c3ccc(Br)cc23)-c2ccccc2N1` [KENPAULLONE], the GI50 in the assay on 786-0 is > 46.3 µM (inactive); in the assay with A549 it was > 90.2 µM (inactive); in the assay on CCRF-CEM, 5.55 µM (inactive); in the assay on DU-145, > 100 µM (inactive); with HL-60, 5.21 µM (inactive); in the assay on Hs-578T it was > 100 µM (inactive). Besides, the GI50 is 5.35 µM (inactive) in the assay on LOX IMVI; > 100 µM (inactive) with MDA-N; > 100 µM (inactive) in the assay on NCI-H226; > 100 µM (inactive) in the assay with NCI-H23; > 100 µM (inactive) with NCI-H522; > 100 µM (inactive) in the assay with OVCAR-8. In addition, the GI50 in the assay with SF-268 is > 75.5 µM (inactive); in the assay on SF-539, 2.43 µM (inactive); with SK-MEL-28 it was > 62.4 µM (inactive); with SR, 4.21 µM (inactive); with T47D, > 100 µM (inactive); with UACC-257, > 100 µM (inactive). Also, the GI50 in the assay with UO-31 is > 100 µM (inactive).

Take `N#CC1=C(N2CCOCC2)CCC1`: the GI50 in the assay on 786-0, in the assay with A549, with CCRF-CEM, in the assay with DU-145, in the assay with HCT-116 and in the assay on HL-60 was > 100 µM (inactive) in each case. Further, the GI50 is > 100 µM (inactive) in the assay with Hs-578T; > 100 µM (inactive) in the assay on LOX IMVI; 52.6 µM (inactive) in the assay with MDA-N; > 100 µM (inactive) in the assay with NCI-H226; > 100 µM (inactive) with NCI-H23; > 100 µM (inactive) in the assay on NCI-H522. Further, the GI50 in the assay on OVCAR-8, with SF-268, in the assay on SF-539, in the assay with SR, in the assay on T47D and with UACC-257 was > 100 µM (inactive) in each case. In the assay with UO-31, the GI50 was > 100 µM (inactive).

For `COc1ccc(/C=C2\C[C@H]3[C@@H]4CCC5=C[C@@H](N6CCCC6)CC[C@]5(C)[C@H]4CC[C@]3(C)[C@H]2O)cc1`, the GI50 was 1.53 µM (inactive) in the assay on 786-0; 2.58 µM (inactive) in the assay with A549; 4.91 µM (inactive) in the assay on DU-145; 1.98 µM (inactive) in the assay with HCT-116; 1.95 µM (inactive) in the assay with HL-60; 2.69 µM (inactive) in the assay with Hs-578T. Moreover, the GI50 in the assay on LOX IMVI is 1.78 µM (inactive); in the assay on MDA-N it was 1.57 µM (inactive); with NCI-H226 it was 3.13 µM (inactive); with NCI-H23 it was 3.44 µM (inactive); in the assay on NCI-H522 it was 2.53 µM (inactive); in the assay on OVCAR-8 it was 3.52 µM (inactive). In addition, the GI50 in the assay on SF-268 is 2.92 µM (inactive); with SF-539, 2.15 µM (inactive); in the assay on SK-MEL-28, 1.87 µM (inactive); in the assay with SR, 1.01 µM (active); in the assay on T47D, 4.56 µM (inactive); in the assay with UACC-257, 1.4 µM (inactive). The GI50 in the assay on UO-31 was 1.72 µM (inactive).

On to `COc1cc(/C=C2\N=C(c3ccccc3)N(c3nc4ccccc4s3)C2=O)cc(OC)c1OC`, for which the GI50 in the assay with 786-0 is 24.8 µM (inactive); in the assay on A549, 29.6 µM (inactive); in the assay with DU-145, 34.1 µM (inactive); in the assay with HCT-116 it was 35 µM (inactive); with HL-60, 60.5 µM (inactive); in the assay with Hs-578T it was 17.3 µM (inactive). In addition, the GI50 in the assay on LOX IMVI is 36.4 µM (inactive); in the assay on MDA-N, 15.3 µM (inactive); with NCI-H226, > 100 µM (inactive); in the assay on NCI-H23, 31.1 µM (inactive); in the assay on NCI-H522, 13.4 µM (inactive); in the assay with OVCAR-8, 31 µM (inactive). Also, the GI50 in the assay on SF-268 was 26.5 µM (inactive); with SF-539 it was 32.3 µM (inactive); with SK-MEL-28, 33 µM (inactive); in the assay with SR, 11.7 µM (inactive); with T47D, 28.9 µM (inactive); in the assay with UACC-257, > 100 µM (inactive). Further, the GI50 in the assay on UO-31 was 58.5 µM (inactive).
